Experimental data taken from US10517854B2, “Dosing regiments of celgosivir for the treatment of dengue” (60 Degrees Pharmaceuticals, LLC, priority 2013, dated 2019).

Experiments:
DENV1-4 = experiment: Inhibition of replication across dengue serotypes (CFI); format: cell-based; conditions: Dengue virus, DENV1 / DENV2, read-out: EC50 values for the other three serotypes
DENV3 = experiment: Cell-based flaviviral immunodetection assay (CFI), DENV3; conditions: Dengue virus, BHK-21; DENV3, BHK21 cells, 48 hours
[1] = system: DENV2 in THP-1 human monocytes; experiment: ADE infection of human monocytes (THP-1), plaque assay; format: cell-based; conditions: Dengue virus, THP-1, DENV2 + 4G2 antibody, 48 hours, read-out: EC50, suppression of viral replication under ADE condition
Procedure: The activity of celgosivir in infected human monocytes, one of the primary circulating cell types infected by dengue virus, was examined, THP-1 cells were grown in RPMI-1640 maintenance medium containing 10% fetal calf serum and 1% Penicillin-streptomycin and cultured in 37° C. incubator supplemented with 5% CO2. For ADE infection in THP-1 cells, virus (DENV2, MOI-10) was mixed with sub-neutralizing concentration of humanized 4G2 monoclonal antibody (0.05 μg/0.5 ml) and allowed to incubate on ice for 1 hr in the serum free medium, to allow immune complex formations. The immune complex was then added on to THP-1 (1×10^5) cells per well in a 24 well plate and further incubated for 2 hours at 37° C. incubator. An excess unbound immune complex was then removed by spinning cells at 1000 rpm for 5 min and then cells were supplemented with complete growth maintenance medium. For drug testing in the ADE condition, cells were mock (untreated) or celgosivir-treated for 48 hours, and finally media supernatant was collected for plaque assay analysis.

[2] = parameters: tmax: unit not given here; conditions: cited from earlier work
[3] = healthy rats, single dose 35 mg/kg PO

Compound: CCCC(=O)O[C@H]1CN2CC[C@H](O)[C@@H]2[C@@H](O)[C@@H]1O.Cl [Celgosivir, celgosivir]
- EC50 (DENV1-4): 310 to 650 nM
- EC50 (DENV3): 680 ± 20 nM
- EC50 [1]: 500 nM
- mean Cmax in the portal vein ([2]; 400 mg/kg celgosivir PO): 1900 ng/mL
- AUC [2, 3]: 10.5
- Cmax [2, 3]: 8760 ± 1150 ng/mL
- tmax [2, 3]: 0.44±0.01
- AUC 0-60 min ([2]; portal vein, 400 mg/kg celgosivir PO): 1000 ng·h/mL
- Oral bioavailability ([2]; rat): 93%
- half-life ([2]; rat): 2.7 h
- oral clearance (CL/F) ([2]; rat): 41.7 mL/min/kg
